# Experimental data published in patent US6143769A, “Phenylacetic acid benzylamides” (Karl Thomae GmbH, priority 1983, dated 2000).
# Read-outs that look alike come from different tables or passages of the source.
# What was measured:
# Assay type in all cases: in vivo, human
# [1] = Study 1: plasma concentration, non-stereoselective HPLC
# glucose = assay: Study 1: whole blood glucose, 2 mg AG-EE 388 ZW capsule, 12 healthy male volunteers; settings: 2 mg capsule
# [2] = Study 3: plasma concentration of active substance, single test subject; settings: for Cmax: read-out: Maximum concentration; for Tmax: read-out: Time of peak concentration; for concentration at 1.5 h: 1.50 h; for concentration at 2.5 h: 2.50 h; for concentration at 3.5 h: 3.50 h
smiles,measurement,setting,value
"CCOc1cc(CC(=O)NC(CC(C)C)c2ccccc2N2CCCCC2)ccc1C(=O)O (racemic) [AG-EE 388 ZW, 2-ethoxy-4-[N-[1-(2-piperidino-phenyl)-3-methyl-1-butyl]aminocarbonylmethyl]-benzoic acid]",Concentration (mean),"[1]; 2 mg capsule, 0 h",0 µg/mL
same,Concentration (mean),"[1]; 2 mg capsule, 10.00 h",0 µg/mL
same,Time at which level reaches the detection limit,"[1]; 2 mg capsule, limit 5 ng/ml",5 h
same,concentration at 0.5 h,"[1]; human, plasma, po, 2 mg, 2 mg capsule, 0.50 h",0.0558 µg/mL
same,concentration at 0.75 h,"[1]; human, plasma, po, 2 mg, 2 mg capsule, 0.75 h",0.0829 µg/mL
same,concentration at 1 h,"[1]; human, plasma, po, 2 mg, 2 mg capsule, 1.00 h",0.0828 µg/mL
same,concentration at 1.5 h,"[1]; human, plasma, po, 2 mg, 2 mg capsule, 1.50 h",0.0647 µg/mL
same,concentration at 2 h,"[1]; human, plasma, po, 2 mg, 2 mg capsule, 2.00 h",0.0583 µg/mL
same,concentration at 3 h,"[1]; human, plasma, po, 2 mg, 2 mg capsule, 3.00 h",0.0294 µg/mL
same,concentration at 4 h,"[1]; human, plasma, po, 2 mg, 2 mg capsule, 4.00 h",0.0163 µg/mL
same,concentration at 5 h,"[1]; human, plasma, po, 2 mg, 2 mg capsule, 5.00 h",0.009 µg/mL
same,concentration at 6 h,"[1]; human, plasma, po, 2 mg, 2 mg capsule, 6.00 h",0.0042 µg/mL
same,concentration at 8 h,"[1]; human, plasma, po, 2 mg, 2 mg capsule, 8.00 h",0.0012 µg/mL
same,Cmax,"[1]; human, plasma, po, 2 mg capsule p.o., read-out: Maximum concentration",0.083 ± 0.018 µg/mL
same,Duration of activity,glucose,about 5 hours
same,"Glucose, deviation from placebo",glucose; 0 h,n.s.
same,"Glucose, deviation from placebo",glucose; 0.50 h,n.s.
same,"Glucose, deviation from placebo",glucose; 0.75 h,-9%
same,"Glucose, deviation from placebo",glucose; 1.00 h,-17%
same,"Glucose, deviation from placebo",glucose; 1.50 h,-27%
same,"Glucose, deviation from placebo",glucose; 2.00 h,-24%
same,"Glucose, deviation from placebo",glucose; 2.50 h,-19%
same,"Glucose, deviation from placebo",glucose; 3.00 h,n.s.
same,"Glucose, deviation from placebo",glucose; 4.00 h,-24%
same,"Glucose, deviation from placebo",glucose; 5.00 h,-9%
same,"Glucose, deviation from placebo",glucose; 5.50 h (lunch),n.s.
same,"Glucose, deviation from placebo",glucose; 6.00 h,n.s.
same,"Glucose, deviation from placebo",glucose; 7.00 h (snack),n.s.
same,"Glucose, deviation from placebo",glucose; 8.00 h,-5%
same,"Glucose, deviation from placebo",glucose; 9.00 h,n.s.
same,"Glucose, deviation from placebo",glucose; 10.00 h (dinner),n.s.
same,Active substance concentration,"[2]; 2 mg, 5.00 h",0 ng/mL
same,Active substance concentration,"[2]; 4 mg capsule, 0 h",0 ng/mL
same,Active substance concentration,"[2]; 4 mg, 0.50 h",0 ng/mL
same,Cmax,"[2]; human, plasma, po, 2 mg, 2 mg capsule",0.082 µg/mL
same,Tmax,"[2]; human, plasma, po, 2 mg",1.75 h
same,Cmax,"[2]; human, plasma, po, 4 mg, 4 mg capsule",0.15 µg/mL
same,Tmax,"[2]; human, plasma, po, 4 mg",1.5 h
same,concentration at 0.5 h,"[2]; human, plasma, po, 2 mg capsule, 0.50 h",0.011 µg/mL
same,concentration at 0.75 h,"[2]; human, plasma, po, 2 mg",0.016 µg/mL
same,concentration at 1 h,"[2]; human, plasma, po, 2 mg",0.04 µg/mL
same,concentration at 1.25 h,"[2]; human, plasma, po, 2 mg",0.044 µg/mL
same,concentration at 1.5 h,"[2]; human, plasma, po, 2 mg",0.068 µg/mL
same,concentration at 1.75 h,"[2]; human, plasma, po, 2 mg",0.082 µg/mL
same,concentration at 2 h,"[2]; human, plasma, po, 2 mg",0.082 µg/mL
same,concentration at 2.5 h,"[2]; human, plasma, po, 2 mg",0.08 µg/mL
same,concentration at 3 h,"[2]; human, plasma, po, 2 mg",0.072 µg/mL
same,concentration at 3.5 h,"[2]; human, plasma, po, 2 mg",0.059 µg/mL
same,concentration at 4 h,"[2]; human, plasma, po, 2 mg",0.032 µg/mL
same,concentration at 0.75 h,"[2]; human, plasma, po, 4 mg",0.01 µg/mL
same,concentration at 1 h,"[2]; human, plasma, po, 4 mg",0.072 µg/mL
same,concentration at 1.25 h,"[2]; human, plasma, po, 4 mg",0.13 µg/mL
same,concentration at 1.5 h,"[2]; human, plasma, po, 4 mg",0.15 µg/mL
same,concentration at 1.75 h,"[2]; human, plasma, po, 4 mg",0.148 µg/mL
same,concentration at 2 h,"[2]; human, plasma, po, 4 mg",0.141 µg/mL
same,concentration at 2.5 h,"[2]; human, plasma, po, 4 mg",0.119 µg/mL
same,concentration at 3 h,"[2]; human, plasma, po, 4 mg",0.109 µg/mL
same,concentration at 3.5 h,"[2]; human, plasma, po, 4 mg",0.084 µg/mL
same,concentration at 4 h,"[2]; human, plasma, po, 4 mg",0.071 µg/mL
same,concentration at 5 h,"[2]; human, plasma, po, 4 mg, 5.00 h",0.064 µg/mL
same,concentration at 6 h,"[2]; human, plasma, po, 4 mg, 6.00 h",0.049 µg/mL
same,concentration at 7 h,"[2]; human, plasma, po, 4 mg, 7.00 h",0.021 µg/mL
same,concentration at 8 h,"[2]; human, plasma, po, 4 mg, 8.00 h",0.018 µg/mL
